Source: patent publication EP3027213B1, “COMPOSITIONS FOR AMELIORATING AND/OR PREVENTING ADVERSE SIDE EFFECTS IN ANTIBIOTIC THERAPY” (priority 2013, dated 2015)
Entries after “also recorded” stand apart in the source; their conditions may differ. Where two headings read alike, the source gives them in different places.

Columns and labels:
[1] = tested on: human HT29 rho zero cell line; assay: Growth of rho zero cells with alternative pyruvate or uridine sources, phase contrast microscopy (Example 5, Fig. 6); format: cell-based; conditions: day 9
Procedure: Side effects of antibiotics can be ameliorated by administration of pyruvate and uridine. This observation can be further substantiated by applying alternative pyruvate or uridine sources, as for example alanine and uridine monophosphate (UMP). • Alternative pyruvate source: To challenge this hypothesis, cells devoid of mitochondrial DNA (rho zero cells) resembling cells that were treated with the antibiotics and have lost their mitochondrial encoded proteins, were cultured in the presence of uridine, alanine and uridine or pyruvate and uridine. […] Cells growth medium was supplemented with uridine (0.2 mM uridine) or alanine (1-10 mM alanine) and uridine (0.2 mM uridine) or pyruvate (1 mM sodium pyruvate) and uridine (0.2 mM uridine) (see figure 6a). […] Thus, pyruvate can be substituted by alternative pyruvate sources to ameliorate side effects of antibiotics. • Alternative uridine source: To challenge this hypothesis, cells devoid of mitochondrial DNA (rho zero cells) resembling cells that were treated with the antibiotics and have lost their mitochondrial encoded proteins, were cultured in the presence of UMP, alanine and UMP or pyruvate and UMP. […] Cells growth medium was supplemented with UMP (0.2 mM UMP) or alanine (1-10 mM alanine) and UMP (0.2 mM UMP) or pyruvate (1 mM sodium pyruvate) and UMP (0.2 mM UMP) (see figure 6b). […] Thus, UMP can be substituted by alternative pyrimidine source to ameliorate side effects of antibiotics.

[2] = tested on: GFP-colorized 143B.TK- cells; format: cell-based; conditions: human, 13 days, 150 µg/ml
Source text: (§1) The panels display co-cultures grown on petri-dishes that contain a human dermal fibroblast (HDF) monolayer inoculated with GFP-colorized 143B.TK- cells imaged by fluorescence microscopy and phase contrast microscopy. The HDF cells represent a resting post-mitotic tissue, while the GFP-colorized 143B.TK- cells mimic mitotic active cells. • Figure 1b, left panel: Without pyruvate and uridine, the side effect of chloramphenicol (or linezolid, or tigezycline) can be visualized on co-cultures similarly to the effect seen in figure 1. Approximately at day 4 of culture, the mitotic active colony enlarges and experiences growth retardation. […] The mitotic cells grow completely regularly. At day 8, the entire area is overgrown by the GFP-colorized 143B.TK^- cells.
(§2) To understand the influence of the antibiotic on cell cycles state, a co-culture was established that was based on a primary fibroblasts monolayer (mimicking cells at resting state) that was inoculated with 143B.TK^- cells (mimicking cells in mitotic state, dividing cells).
(§3) However, the fibroblast layer was completely unaffected and vital to start regrowth again (proven by executing scratches through the monolayer; "wound-healing" set in immediately). […] Both side-effects could be removed by co-administering uridine and/or pyruvate or derivatives thereof.

[3] = tested on: human dermal fibroblast (HDF) monolayer; format: cell-based
Source text: as §1
(§4) The panels display co-cultures grown on petri-dishes that contain a human dermal fibroblast (HDF) monolayer inoculated with GFP-colorized 143B.TK^- cells and dsRED-colorized 143B.TK^-CAP-res cells. The dsRED-colorized 143B.TK^-CAP-res cells contain a mitochondrial genotype that renders the cells chloramphenicol resistant.
as §2, §3

143B.TK^- cells [4] = format: cell-based, human
Procedure: Left panel: 143B.TK^- cells containing a green colorizing gene (GFP, green color) were seeded and grown to the original density in normal growth medium (left, 1). At day 1, medium was changed to allow cell growth under pyruvate and uridine free conditions; the medium was supplemented with chloramphenicol (or linezolid, or tigezycline; see example 1). […] At day 6 (image 3), the imaged colony starts to disperse and diminishes. At day 8 (image 4), cell number further declines and cells ceased to exist (day 10). Right panel: 143B.TK^- cells containing a green colorizing gene (GFP, green color) were seeded and grown to the original density in normal growth medium (right, 1). At day 1, medium was changed to allow cell growth under controlled pyruvate and uridine supply; the medium was supplemented with chloramphenicol (or linezolid, or tigezycline; see example 1).
In order to understand the side effects of antibiotics, we incubated cultured human cells with antibiotics that are known to impede cell's metabolism. The experiments were carried out with chloramphenicol, tigezycline or linezolid under otherwise identical conditions. […] Cells were treated with chloramphenicol (150 µg/ml culture medium, 450 µM; or linezolid, or tigezycline) and medium was exchanged on a daily basis. […] After additional 4 days, cells ceased to exist (see figure 1a).

E. coli DH5α = assay: Paper pad agar diffusion test, non-growth zone (Examples 2 and 3); format: cell-based; conditions: LB plates as is or supplemented with uridine (50 µg/ml), sodium pyruvate (1 mM) or both; three concentrations; over night at 37°C
Procedure: (§5) Paper test pads (Rotiolabo, 6mm, Roth, Karlsruhe) were soaked with 7.5 µl of antibiotic-solution (concentrations used: 0.5 mM CAP; 0.77 mM CAP; 1.2 mM CAP; 0.15 mM LIN; 0.25 mM LIN; 0,4 mM LIN; 0.15 mM TIG; 0.25 mM TIG; 0.4 mM TIG) and placed on top of the agar plates (CAP- and LIN-solutions on APT/B. subtilis plates, TIG-solutions on LB/E. coli plates). Petri dishes were incubated over night at 37°C and analyzed by measuring the size of the non-growth zone of bacteria surrounding the antibiotics soaked paper pads (see figure 3a, and 3b).
(§6) Paper test pads (Rotiolabo, 6mm, Roth, Karlsruhe) were soaked with 7.5 µl of antibiotic-solution (concentrations used: 0.5 mM CAP; 0.77 mM CAP; 1.2 mM CAP; 0.15 mM LIN; 0.25 mM LIN, 0.4 mM LIN; 0.15 mM TIG, 0.25 mM TIG; 0.4 mM TIG; 0.5 mM CAP + 0.15 mM LIN; 0.77 mM CAP + 0.25 mM LIN; 1.2 mM CAP + 0.4 mM LIN; 0.5 mM CAP + 0.15 mM LIN + 0.15 mM TIG; 0.77 mM CAP + 0.25 mM LIN + 0.25 mM TIG; 1.2 mM CAP + 0.4 mM LIN + 0.4 mM TIG; 0.5 mM CAP + 0.15 mM TIG; 0.77 mM CAP + 0.25 mM TIG; 1.2 mM CAP + 0.4 mM TIG) and placed on top of the agar plates (CAP- and LIN-solutions on APT/B. subtilis plates, TIG-solutions on LB/E. coli plates). Petri dishes were incubated over night at 37°C and analyzed by measuring the size of the non-growth zone of bacteria surrounding the antibiotics soaked paper pads (see figure 2a, and 2b).

143B.TK^- cells [5] = assay: cells; format: cell-based; conditions: Homo sapiens, 240 h, chloramphenicol 50 nM - 300 µM, 10 days
Procedure: The half maximal inhibitory concentration (IC50) is a measure of the effectiveness of a compound in inhibiting biological or biochemical function. This quantitative measure indicates, how much of a particular drug or compound is needed to inhibit a given biological process by half. In this case, the IC50 value was determined for the side-effect of the antibiotic on human cells in the presence or absence of pyruvate and/or uridine. IC50 values were determined utilizing resazurin (Cell-Quanti-Blue Cell Viability Assay Kit, Biotrend Chemikalien GmbH, Köln), a fluorescent dye indicating vital living or dead cells. For the experiment, 24-well culture dishes were seeded with a dilution of 143B.TK^- cells (10^3 cells each). The culture medium was composed of DMEM FG0445 (containing sodium pyruvate, high-glucose, glutamine; at the discretion of the supplier) supplemented with 5% FCS and 0.5 % uridine. After an initial growth of two days, cells were washed in PBS. From here, cells were grown in DMEM F0435 (containg high-glucose, without pyruvate, without glutamine; at the discretion of the supplier) supplemented with 2 % glutamine and 5% FCS. Depending on the subsequent experiments, cell growth medium was further supplemented with: • 1. w/o chloramphenicol, w/o pyruvate, w/o uridine • 2. w chloramphenicol (50 nM - 300 µM), w/o pyruvate, w/o uridine • 3. w chloramphenicol (50 nM - 300 µM), w/o pyruvate, w uridine (50 µg/ml) • 4. w chloramphenicol (50 nM - 300 µM), w pyruvate (100 µg/ml), w/o uridine • 5. w chloramphenicol (50 nM - 300 µM), w pyruvate (100 µg/ml), w uridine (50 µg/ml)
Growth medium was changed every 12 hours. The experiment was carried out for 10 days.
Measures of sets 2-5 were normalized by measure 1. Thus, when cell vitality under chloramphenicol treatment is similar to normal cell growth (measure 1), the ratio of (measure 2, 3, 4, 5) /(measure 1) expressed in % should stay close to 1. […] When pyruvate or pyruvate + uridine were added to the growth medium, IC50 of CAP was out of range (> 300 µM).

B. subtilis DSM 347 = assay: Paper pad agar diffusion test, non-growth zone (Examples 2 and 3); format: cell-based; conditions: APT-plates as is or supplemented with uridine (50 µg/ml), sodium pyruvate (1 mM) or both; three concentrations; over night at 37°C
Procedure: as §5, §6

[6] = tested on: GFP-colorized 143B.TK^- cells; format: cell-based; conditions: human
Source text: as §4
(§7) To see whether or not the side-effect of these antibiotics reside within the mitochondria of the cell, a co-culture was established that was made of a primary fibroblast monolayer inoculated with 143B.TK^- and 143.TK^-CAP^res cells. The latter cell line is identical to the 143B.TK- cell line, except that these cells carry a CAP resistant mutation within the 16S rRNA gene located within the mitochondrial genome and are differently color coded.

[7] = tested on: dsRED-colorized 143B.TK^-CAP-res cells; assay: Co-culture with chloramphenicol-sensitive and -resistant cells: resistant cells (Fig. 1d); format: cell-based, human; conditions: co-culture on HDF monolayer with 143B.TK^- cells, uridine and pyruvate not supplied
Source text: as §4, §7

[8] = 0.2 mM uridine source alone, without any pyruvate source

Row | Structure (SMILES) | cell growth [1, 8] | growth of the mitotic active colony [2] | cell vitality of the HDF monolayer [3] | cell growth (143B.TK^- cells [4]) | cell growth (143B.TK^- cells [4]; human, 150 µg/ml) | Antibiotic effect (size of the non-growth zone) (E. coli DH5α) | Antibiotic effect (size of the non-growth zone) (B. subtilis DSM 347) | other results
1 | O=c1ccn([C@@H]2O[C@H](CO)[C@@H](O)[C@H]2O)c(=O)[nH]1 [uridine] | did not exhibit cell growth; also recorded: cell growth stalls and comes to an halt | – | – | – | – | – | – | –
2 | CN(C)c1cc(NC(=O)CNC(C)(C)C)c(O)c2c1C[C@H]1C[C@H]3[C@H](N(C)C)C(O)=C(C(N)=O)C(=O)[C@@]3(O)C(O)=C1C2=O [tigezycline] | – | finally ceases to exist at day 13 | no change in cell vitality | growth behavior of the cells was not altered by the antibiotic | cell growth retarded and came to a halt after 6 days | not rendered by the co-administered compounds uridine and/or pyruvate; also recorded: independent of pyruvate, uridine or pyruvate + uridine supplementation | – | –
3 | O=C(N[C@H](CO)[C@H](O)c1ccc([N+](=O)[O-])cc1)C(Cl)Cl [chloramphenicol] | – | finally ceases to exist at day 13 | no change in cell vitality | growth behavior of the cells was not altered by the antibiotic | cell growth retarded and came to a halt after 6 days | independent of pyruvate, uridine or pyruvate + uridine supplementation | not rendered by the co-administered compounds uridine and/or pyruvate; also recorded: independent of pyruvate, uridine or pyruvate + uridine supplementation | IC50 (143B.TK^- cells [5]; w pyruvate (100 µg/ml), w uridine (50 µg/ml)): > 300 µM; IC50 (143B.TK^- cells [5]; w pyruvate (100 µg/ml), w/o uridine): > 300 µM; IC50 (143B.TK^- cells [5]; w/o pyruvate, w uridine (50 µg/ml)): 7.5 µM; IC50 (143B.TK^- cells [5]; w/o pyruvate, w/o uridine): 3.2 µM; cell growth [6]: cells stopped growth after 4-5 days and ceased to exist after additional 6 days; cell growth [7]: exhibited no limitation in cell growth; also recorded: not influenced by the side-effect of chloramphenicol and grew regularly; cell growth ([7]; listed as CAP): not influenced by CAP
4 | O=c1ccn([C@@H]2O[C@H](COP(=O)(O)O)[C@@H](O)[C@H]2O)c(=O)[nH]1 [UMP, uridine monophosphate] | did not exhibit cell growth; also recorded: cell growth stalls and comes to an halt | – | – | – | – | – | – | –
5 | C[C@H](N)C(=O)O [alanine] | – | – | – | – | – | – | – | cell growth ([1]; on UMP supplemented media (0.2 mM UMP), alanine 1-10 mM or sodium pyruvate 1 mM): displayed regular cell growth; also recorded: cells prosper and grow almost in the same range as normal cells; cell growth ([1]; on uridine supplemented media (0.2 mM uridine), alanine 1-10 mM or sodium pyruvate 1 mM): displayed regular cell growth; also recorded: cells prosper and grow almost in the same range as normal cells
6 | CC(=O)NC[C@H]1CN(c2ccc(N3CCOCC3)c(F)c2)C(=O)O1 [linezolid] | – | finally ceases to exist at day 13 | no change in cell vitality | growth behavior of the cells was not altered by the antibiotic | cell growth retarded and came to a halt after 6 days | – | not rendered by the co-administered compounds uridine and/or pyruvate; also recorded: independent of pyruvate, uridine or pyruvate + uridine supplementation | –
